From PMC7188728, “A phase I study investigation of metabolism, and disposition of [^14C]-anlotinib after an oral administration in patients with advanced refractory solid tumors” (Cancer Chemotherapy and Pharmacology, 2020)
Structures can show the parent of a compound that is named as a salt.

Columns and labels:
[1] = Adverse events after a single dose of 14C anlotinib suspension; format: in vivo, human
[2] = Total radioactivity pharmacokinetics in plasma after single oral [14C]-anlotinib hydrochloride; format: in vivo, human
Description: The blood samples were collected before orally administration and 0.5, 2, 4, 8, 10, 12, 24, 48, 72, 96, 120, 144, 168, 192, 216, 240, 288, 312, 384, 408, 456, 480, 552, 840, 888, and 1416 h after orally administration. An aliquot of the blood samples was mixed gently and chilled immediately under − 20 °C; the remainder was centrifuged at 1660 g for 10 min at 4 °C to separate the plasma samples.
Levels of radioactivity in plasma, urine, and extracts of fecal samples were determined by mixing individual samples with 5 mL scintillation cocktail and determined by counting directly in a liquid scintillation counter (LSC). Blood, fecal homogenates, and post extraction solids were combusted with OX-501 Biological Sample Oxidizer, the ^14CO2 formed were trapped directly in 15 mL scintillation cocktail, followed by counting with LSC. Samples were assayed with a liquid scintillation counter for 5 min.
The peak concentration (Cmax) and the time to Cmax (Tmax) were obtained through the plasma concentration directly. The area under concentration–time curve up to the last measured time point (AUC0−t) was calculated by the trapezoidal rule. The k was estimated by linear regression analysis of the terminal portion of the log concentration–time data, and the elimination half-life (t1/2) was calculated through the coefficient 0.693/k. The renal clearance (CLR) was calculated by dividing the cumulative amount excreted into urine (Cum. Ae−U) by plasma AUC0−t.

[3] = system: VEGFR2/KDR and VEGFR3; design: method as in PMID 29454091; conditions: recombinant enzymes; cited from earlier work
[4] = six male patients, single oral 14.15 mg/80 or 120 µCi
[5] = suspension here vs capsule in the previous study

With `COc1cc2c(Oc3ccc4[nH]c(C)cc4c3F)ccnc2cc1OCC1(N)CC1` [anlotinib, 1-[[4-(4-fluoro-2-methyl-1H-indol-5-yloxy)-6-methoxyquinolin-7-yl]oxy]methyl) cyclopropanamine dihydrochloride] the “Anemia: number of cases of grade 3 (%)” value ([1]; Research process, N = 6) was 0 n (%), the “Aspartate aminotransferase increased: number of cases of grade 1/2 (%)” value ([1]; Research process, N = 6) was 0 n (%) and the “Aspartate aminotransferase increased: number of cases of grade 3 (%)” value ([1]; Research process, N = 6) was 1 (16.67%) n (%). For the same compound, the “At least once (any adverse event): number of cases of grade 3 (%)” value ([1]; Research process, N = 6) was 3 (50%) n (%), the “Constipation: number of cases of grade 1/2 (%)” value ([1]; Research process, N = 6) was 2 (33.33%) n (%) and the “Constipation: number of cases of grade 3 (%)” value ([1]; Research process, N = 6) was 0 n (%). For the same compound, the “Cough: number of cases of grade 1/2 (%)” value ([1]; Research process, N = 6) was 1 (16.67%) n (%), the “Cough: number of cases of grade 3 (%)” value ([1]; Research process, N = 6) was 0 n (%) and the “Diarrhea: number of cases of grade 1/2 (%)” value ([1]; Research process, N = 6) was 2 (33.33%) n (%). For the same compound, the “Diarrhea: number of cases of grade 3 (%)” value ([1]; Research process, N = 6) was 0 n (%), the “Hemoptysis: number of cases of grade 1/2 (%)” value ([1]; Research process, N = 6) was 1 (16.67%) n (%) and the “Hemoptysis: number of cases of grade 3 (%)” value ([1]; Research process, N = 6) was 0 n (%). The “Hypertriglyceridemia: number of cases of grade 1/2 (%)” value ([1]; Research process, N = 6) was 1 (16.67%) n (%), the “Hypertriglyceridemia: number of cases of grade 3 (%)” value ([1]; Research process, N = 6) was 0 n (%) and the “Hypoalbuminemia: number of cases of grade 1/2 (%)” value ([1]; Research process, N = 6) was 3 (50%) n (%). For the same compound, the “Hypoalbuminemia: number of cases of grade 3 (%)” value ([1]; Research process, N = 6) was 0 n (%), the “Hypocalcemia: number of cases of grade 1/2 (%)” value ([1]; Research process, N = 6) was 1 (16.67%) n (%) and the “Hypocalcemia: number of cases of grade 3 (%)” value ([1]; Research process, N = 6) was 0 n (%). For the same compound, the “Hypophosphatemia: number of cases of grade 1/2 (%)” value ([1]; Research process, N = 6) was 1 (16.67%) n (%), the “Hypophosphatemia: number of cases of grade 3 (%)” value ([1]; Research process, N = 6) was 1 (16.67%) n (%) and the “Hypothyroidism: number of cases of grade 1/2 (%)” value ([1]; Research process, N = 6) was 1 (16.67%) n (%). For the same compound, the “Hypothyroidism: number of cases of grade 3 (%)” value ([1]; Research process, N = 6) was 0 n (%), the “Increased alanine aminotransferase: number of cases of grade 1/2 (%)” value ([1]; Research process, N = 6) was 1 (16.67%) n (%) and the “Increased alanine aminotransferase: number of cases of grade 3 (%)” value ([1]; Research process, N = 6) was 1 (16.67%) n (%). For the same compound, the “Increased blood bilirubin: number of cases of grade 1/2 (%)” value ([1]; Research process, N = 6) was 1 (16.67%) n (%), the “Increased blood bilirubin: number of cases of grade 3 (%)” value ([1]; Research process, N = 6) was 1 (16.67%) n (%) and the “Increased lactate dehydrogenase: number of cases of grade 1/2 (%)” value ([1]; Research process, N = 6) was 1 (16.67%) n (%). The “Increased lactate dehydrogenase: number of cases of grade 3 (%)” value ([1]; Research process, N = 6) was 0 n (%), the “Increased lipase: number of cases of grade 1/2 (%)” value ([1]; Research process, N = 6) was 2 (33.33%) n (%) and the “Increased lipase: number of cases of grade 3 (%)” value ([1]; Research process, N = 6) was 2 (33.33%) n (%). The “Increased γ-glutamyl transpeptidase: number of cases of grade 1/2 (%)” value ([1]; Research process, N = 6) was 1 (16.67%) n (%), the “Increased γ-glutamyl transpeptidase: number of cases of grade 3 (%)” value ([1]; Research process, N = 6) was 1 (16.67%) n (%) and the “Insomnia: number of cases of grade 1/2 (%)” value ([1]; Research process, N = 6) was 2 (33.33%) n (%). The “Insomnia: number of cases of grade 3 (%)” value ([1]; Research process, N = 6) was 0 n (%), the “Liver function damage: number of cases of grade 1/2 (%)” value ([1]; Research process, N = 6) was 0 n (%) and the “Liver function damage: number of cases of grade 3 (%)” value ([1]; Research process, N = 6) was 1 (16.67%) n (%). The “Proteinuria: number of cases of grade 1/2 (%)” value ([1]; Research process, N = 6) was 1 (16.67%) n (%), the “Proteinuria: number of cases of grade 3 (%)” value ([1]; Research process, N = 6) was 0 n (%) and the “Rapid atrial fibrillation: number of cases of grade 1/2 (%)” value ([1]; Research process, N = 6) was 1 (16.67%) n (%). For the same compound, the “Rapid atrial fibrillation: number of cases of grade 3 (%)” value ([1]; Research process, N = 6) was 0 n (%), the “Sinus bradycardia: number of cases of grade 1/2 (%)” value ([1]; Research process, N = 6) was 1 (16.67%) n (%) and the “Sinus bradycardia: number of cases of grade 3 (%)” value ([1]; Research process, N = 6) was 0 n (%). The “Sinus tachycardia: number of cases of grade 1/2 (%)” value ([1]; Research process, N = 6) was 1 (16.67%) n (%), the “Sinus tachycardia: number of cases of grade 3 (%)” value ([1]; Research process, N = 6) was 0 n (%) and the “Stomachache: number of cases of grade 1/2 (%)” value ([1]; Research process, N = 6) was 1 (16.67%) n (%). For the same compound, the “Stomachache: number of cases of grade 3 (%)” value ([1]; Research process, N = 6) was 0 n (%), the “Patients in whom adverse events occurred” value ([1]; six patients, after a single dosage) was “five” and the “Patients in whom severe adverse events (SAE) occurred” value ([1]; six patients, follow-up period) was “one”. The “AUC0-last (AUClast) of total radioactivity in plasma, average” value [2, 4] was 4071 h∙ng Eq./g, the “AUC0-∞ of total radioactivity in plasma, average” value [2, 4] was 13,555 h∙ng Eq./g and the “Cmax of total radioactivity (TRA) in plasma, average” value [2, 4] was 18.80 ng Eq./g. The “Tmax of total radioactivity (TRA) in plasma, average” value [2, 4] was 4.42 h, the “AUC relative to the published phase I study” value [2, 5] was “twice” and the “Cmax relative to the published phase I study” value [2, 5] was “twice”. For the same compound, the “Capability to inhibit VEGFR2/KDR and VEGFR3, times stronger compared with sorafenib” value [3] was about 500 times and the “Capability to inhibit VEGFR2/KDR and VEGFR3, times stronger compared with sunitinib” value [3] was “approximately 20 times”.
